Test results from the NIST ThermoML archive (doi:10.1016/j.jct.2013.10.031).
Numbers after ± are expanded uncertainties.

Assay: wn = mass fraction of the nth substance listed
Details: Gas, Burnett expansion method

FCC(F)(F)F [1,1,1,2-tetrafluoroethane] + CCC
Details	mass density [kg/m3]
251.84 K, 167.7 kPa, w2 = 0.4	9.96073 ± 1.9
251.85 K, 201.9 kPa, w2 = 0.4	13.2676 ± 1.9
251.86 K, 140.8 kPa, w2 = 0.4	7.47724 ± 1.8
251.88 K, 122.9 kPa, w2 = 0.4	5.6131 ± 1.9
251.89 K, 177.7 kPa, w2 = 0.45	5.82156 ± 0.55
251.9 K, 103.2 kPa, w2 = 0.45	3.28086 ± 0.41
251.9 K, 135.5 kPa, w2 = 0.45	4.37034 ± 0.62
251.9 K, 231.8 kPa, w2 = 0.45	7.75442 ± 0.87
252.28 K, 125.8 kPa, w2 = 0.5	3.8957 ± 0.65
252.28 K, 164.9 kPa, w2 = 0.5	5.1893 ± 0.67
252.29 K, 95.7 kPa, w2 = 0.5	2.9246 ± 0.65
252.29 K, 215.3 kPa, w2 = 0.5	6.9121 ± 0.71
252.3 K, 277.7 kPa, w2 = 0.5	9.2069 ± 0.75
254.94 K, 147.3 kPa, w2 = 0.65	4.0008 ± 0.57
254.94 K, 193.1 kPa, w2 = 0.65	5.32 ± 0.59
254.94 K, 251.7 kPa, w2 = 0.65	7.0741 ± 0.6
254.95 K, 111.9 kPa, w2 = 0.65	3.0009 ± 0.57
255.01 K, 161.7 kPa, w2 = 0.55	4.7449 ± 0.62
255.01 K, 211.6 kPa, w2 = 0.55	6.3095 ± 0.64
255.01 K, 275.1 kPa, w2 = 0.55	8.3897 ± 0.66
255.02 K, 122.9 kPa, w2 = 0.55	3.5683 ± 0.6
255.02 K, 242.1 kPa, w2 = 0.6	7.0088 ± 0.62
255.03 K, 107.3 kPa, w2 = 0.6	2.9809 ± 0.58
255.03 K, 141.3 kPa, w2 = 0.6	3.9638 ± 0.59
255.03 K, 185.5 kPa, w2 = 0.6	5.2708 ± 0.61
255.79 K, 278.4 kPa, w2 = 0.45	9.23624 ± 0.73
255.8 K, 213.6 kPa, w2 = 0.45	6.93377 ± 0.7
255.81 K, 124.4 kPa, w2 = 0.45	3.90764 ± 0.66
255.81 K, 163.3 kPa, w2 = 0.45	5.20515 ± 0.68
255.82 K, 214.2 kPa, w2 = 0.4	7.34761 ± 0.59
255.82 K, 276.5 kPa, w2 = 0.4	9.7875 ± 0.79
255.83 K, 125 kPa, w2 = 0.4	4.14099 ± 0.43
255.83 K, 163.9 kPa, w2 = 0.4	5.51597 ± 0.65
256.28 K, 141.3 kPa, w2 = 0.5	4.27286 ± 0.63
256.28 K, 185.6 kPa, w2 = 0.5	5.69162 ± 0.65
256.28 K, 242.9 kPa, w2 = 0.5	7.58146 ± 0.69
256.28 K, 314.6 kPa, w2 = 0.5	10.099 ± 0.71
256.29 K, 107.2 kPa, w2 = 0.5	3.20772 ± 0.62
258.98 K, 181.5 kPa, w2 = 0.65	4.8943 ± 0.57
258.99 K, 138.2 kPa, w2 = 0.65	3.6806 ± 0.56
258.99 K, 237.5 kPa, w2 = 0.65	6.508 ± 0.6
259 K, 308.1 kPa, w2 = 0.65	8.6533 ± 0.61
259.04 K, 159.4 kPa, w2 = 0.6	4.3995 ± 0.58
259.04 K, 209.2 kPa, w2 = 0.6	5.8501 ± 0.59
259.04 K, 273.1 kPa, w2 = 0.6	7.7791 ± 0.62
259.05 K, 121 kPa, w2 = 0.6	3.3086 ± 0.57
259.15 K, 246.1 kPa, w2 = 0.55	7.2337 ± 0.64
259.15 K, 319.6 kPa, w2 = 0.55	9.6189 ± 0.65
259.16 K, 143 kPa, w2 = 0.55	4.0909 ± 0.61
259.16 K, 188 kPa, w2 = 0.55	5.4398 ± 0.61
260.14 K, 233.5 kPa, w2 = 0.45	7.48249 ± 0.7
260.15 K, 178.4 kPa, w2 = 0.45	5.61717 ± 0.68
260.16 K, 136 kPa, w2 = 0.45	4.21669 ± 0.66
260.16 K, 216.7 kPa, w2 = 0.5	6.56707 ± 0.65
260.16 K, 304 kPa, w2 = 0.45	9.96648 ± 0.71
260.17 K, 104.4 kPa, w2 = 0.45	3.16556 ± 0.64
260.18 K, 117.7 kPa, w2 = 0.4	3.78056 ± 0.66
260.19 K, 155.8 kPa, w2 = 0.4	5.03578 ± 0.68
260.19 K, 265.9 kPa, w2 = 0.4	8.93493 ± 0.76
260.2 K, 125.4 kPa, w2 = 0.5	3.70054 ± 0.62
260.2 K, 165.1 kPa, w2 = 0.5	4.92963 ± 0.63
260.21 K, 95 kPa, w2 = 0.5	2.77802 ± 0.59
260.25 K, 204 kPa, w2 = 0.4	6.70606 ± 0.71
260.39 K, 282.8 kPa, w2 = 0.5	8.73987 ± 0.68
263.01 K, 137.7 kPa, w2 = 0.65	3.5955 ± 0.55
263.01 K, 237 kPa, w2 = 0.65	6.3575 ± 0.58
263.01 K, 308.7 kPa, w2 = 0.65	8.4537 ± 0.6
263.02 K, 181 kPa, w2 = 0.65	4.781 ± 0.56
263.04 K, 222.9 kPa, w2 = 0.55	6.3877 ± 0.61
263.05 K, 128.9 kPa, w2 = 0.55	3.6124 ± 0.58
263.05 K, 219.6 kPa, w2 = 0.6	6.0704 ± 0.59
263.05 K, 286.9 kPa, w2 = 0.6	8.072 ± 0.62
263.05 K, 291.1 kPa, w2 = 0.55	8.4935 ± 0.64
263.06 K, 167.2 kPa, w2 = 0.6	4.5651 ± 0.58
263.06 K, 169.8 kPa, w2 = 0.55	4.8035 ± 0.59
263.06 K, 376.6 kPa, w2 = 0.55	11.2936 ± 0.67
263.07 K, 371.3 kPa, w2 = 0.6	10.733 ± 0.64
264.02 K, 234.6 kPa, w2 = 0.45	7.35423 ± 0.68
264.02 K, 305.6 kPa, w2 = 0.45	9.80334 ± 0.72
264.03 K, 136.3 kPa, w2 = 0.45	4.14766 ± 0.64
264.03 K, 179.2 kPa, w2 = 0.45	5.52482 ± 0.66
264.03 K, 395.1 kPa, w2 = 0.45	13.0578 ± 0.73
264.05 K, 220.5 kPa, w2 = 0.4	7.15058 ± 0.7
264.05 K, 288.1 kPa, w2 = 0.4	9.52478 ± 0.73
264.06 K, 127.7 kPa, w2 = 0.4	4.02995 ± 0.66
264.06 K, 168.1 kPa, w2 = 0.4	5.36802 ± 0.67
264.06 K, 373.8 kPa, w2 = 0.4	12.6873 ± 0.75
264.29 K, 216 kPa, w2 = 0.5	6.42237 ± 0.63
264.29 K, 282.6 kPa, w2 = 0.5	8.55501 ± 0.66
264.29 K, 367.3 kPa, w2 = 0.5	11.3955 ± 0.69
264.3 K, 124.9 kPa, w2 = 0.5	3.61957 ± 0.61
264.3 K, 164.5 kPa, w2 = 0.5	4.82138 ± 0.62
266.99 K, 289.8 kPa, w2 = 0.65	7.7396 ± 0.58
267.01 K, 221.7 kPa, w2 = 0.65	5.82 ± 0.56
267.01 K, 375.8 kPa, w2 = 0.65	10.2907 ± 0.6
267.02 K, 128.5 kPa, w2 = 0.65	3.2915 ± 0.54
267.02 K, 169 kPa, w2 = 0.65	4.3767 ± 0.54
267.04 K, 261.1 kPa, w2 = 0.55	7.4247 ± 0.61
267.04 K, 340.3 kPa, w2 = 0.55	9.8728 ± 0.65
267.05 K, 199.2 kPa, w2 = 0.55	5.5837 ± 0.59
267.05 K, 438.6 kPa, w2 = 0.55	13.1279 ± 0.67
267.07 K, 138.6 kPa, w2 = 0.6	3.6841 ± 0.54
267.07 K, 151.4 kPa, w2 = 0.55	4.1987 ± 0.58
267.07 K, 182.7 kPa, w2 = 0.6	4.8989 ± 0.56
267.07 K, 239.8 kPa, w2 = 0.6	6.5142 ± 0.58
267.07 K, 313.2 kPa, w2 = 0.6	8.6621 ± 0.61
267.08 K, 405.7 kPa, w2 = 0.6	11.5178 ± 0.65
267.95 K, 114.5 kPa, w2 = 0.4	3.5398 ± 0.65
267.95 K, 150.8 kPa, w2 = 0.4	4.71519 ± 0.65
267.95 K, 198.3 kPa, w2 = 0.4	6.28082 ± 0.67
267.96 K, 259.7 kPa, w2 = 0.4	8.36602 ± 0.7
268 K, 338.5 kPa, w2 = 0.4	11.1424 ± 0.73
268.07 K, 437.9 kPa, w2 = 0.4	14.8381 ± 0.75
268.15 K, 234.6 kPa, w2 = 0.45	7.16341 ± 0.65
268.15 K, 306.8 kPa, w2 = 0.45	9.54198 ± 0.68
268.15 K, 398.6 kPa, w2 = 0.45	12.7103 ± 0.72
268.16 K, 135.7 kPa, w2 = 0.45	4.03719 ± 0.62
268.16 K, 178.7 kPa, w2 = 0.45	5.37765 ± 0.63
268.22 K, 133.2 kPa, w2 = 0.5	3.80047 ± 0.6
268.23 K, 175.4 kPa, w2 = 0.5	5.06234 ± 0.61
268.24 K, 230.4 kPa, w2 = 0.5	6.74301 ± 0.62
268.24 K, 301.4 kPa, w2 = 0.5	8.98179 ± 0.65
268.25 K, 391.6 kPa, w2 = 0.5	11.9637 ± 0.67
270.98 K, 225.5 kPa, w2 = 0.55	6.2618 ± 0.59
270.99 K, 171.5 kPa, w2 = 0.55	4.709 ± 0.57
270.99 K, 295.2 kPa, w2 = 0.55	8.3263 ± 0.61
270.99 K, 384.1 kPa, w2 = 0.55	11.0715 ± 0.65
271.01 K, 493 kPa, w2 = 0.55	14.7211 ± 0.69
271.03 K, 140.5 kPa, w2 = 0.65	3.5483 ± 0.53
271.03 K, 242.2 kPa, w2 = 0.65	6.274 ± 0.55
271.03 K, 316.1 kPa, w2 = 0.65	8.3428 ± 0.58
271.04 K, 184.7 kPa, w2 = 0.65	4.7181 ± 0.54
271.04 K, 466.5 kPa, w2 = 0.6	13.2292 ± 0.65
271.05 K, 409.9 kPa, w2 = 0.65	11.0926 ± 0.59
271.08 K, 361.5 kPa, w2 = 0.6	9.9474 ± 0.61
271.1 K, 160.8 kPa, w2 = 0.6	4.2305 ± 0.54
271.1 K, 211.6 kPa, w2 = 0.6	5.6254 ± 0.56
271.1 K, 277.5 kPa, w2 = 0.6	7.4803 ± 0.58
271.58 K, 526.1 kPa, w2 = 0.5	16.4345 ± 0.73
271.6 K, 411.1 kPa, w2 = 0.5	12.337 ± 0.69
271.62 K, 241.2 kPa, w2 = 0.5	6.95248 ± 0.61
271.62 K, 316.5 kPa, w2 = 0.5	9.26115 ± 0.64
271.64 K, 182.9 kPa, w2 = 0.5	5.21904 ± 0.59
271.65 K, 138.7 kPa, w2 = 0.5	3.918 ± 0.59
272.12 K, 507.5 kPa, w2 = 0.45	16.4006 ± 0.73
272.13 K, 175.9 kPa, w2 = 0.45	5.20923 ± 0.63
272.13 K, 231.2 kPa, w2 = 0.45	6.93891 ± 0.64
272.13 K, 289.6 kPa, w2 = 0.4	9.21252 ± 0.69
272.13 K, 302.5 kPa, w2 = 0.45	9.24297 ± 0.67
272.13 K, 393.6 kPa, w2 = 0.45	12.3121 ± 0.71
272.14 K, 127.8 kPa, w2 = 0.4	3.89783 ± 0.64
272.14 K, 168.4 kPa, w2 = 0.4	5.19207 ± 0.64
272.14 K, 221.2 kPa, w2 = 0.4	6.91602 ± 0.67
